Test systems include SF-295; ACHN; OVCAR-3; T47D; MCF7; UACC-257; HL-60; SNB-75; A498; HCT-116; SNB-19; CAKI-1; IGROV-1; A549; DU-145; PC-3; SF-268; OVCAR-4; SR; SK-OV-3.
Holding throughout (test): growth of human tumour cells (NCI), 48 h

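How tested: cells in 96-well plates exposed to compound for 48 hours at five concentrations. GI50 = concentration required for 50% inhibition of growth.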 Active and inactive are the calls of the source. Rule as the data show it: active = GI50 up to about 1.1 µM and inactive = higher. A value given as a limit tells only on which side of the number the result lay.

Regarding `CCCCCCCCCCCCCCCCC(=O)NCC(=O)NCC(=O)NC(Cc1ccccc1)C(=O)Oc1ccc([N+](=O)[O-])cc1` (stereo unspecified), the GI50 in the assay on SF-295 was 23 µM (inactive); in the assay with ACHN, > 100 µM (inactive); in the assay on OVCAR-3, > 100 µM (inactive); in the assay on T47D, 30.7 µM (inactive); in the assay on MCF7, 48.4 µM (inactive); in the assay with UACC-257, 23.9 µM (inactive). For the same compound, the GI50 in the assay on HL-60 is 50 µM (inactive); with SNB-75 it was 45.2 µM (inactive); in the assay on A498, > 100 µM (inactive); in the assay on HCT-116 it was 18.6 µM (inactive); with SNB-19, > 10 µM (inactive); with CAKI-1 it was 17.2 µM (inactive). In addition, the GI50 in the assay with IGROV-1 was > 100 µM (inactive); in the assay with A549, > 10 µM (inactive); in the assay with DU-145 it was > 100 µM (inactive); in the assay on PC-3 it was 31.5 µM (inactive); with SF-268, 23.3 µM (inactive); in the assay on OVCAR-4, > 100 µM (inactive). In the assay with SR, the GI50 is 25 µM (inactive).

Take `COc1ccc(/N=N/C(=N/NC(=O)c2ccc(C)cc2)c2ccc(N(CCC#N)CCC#N)cc2OC)cc1`: the GI50 with SF-295, in the assay on ACHN, with OVCAR-3, with T47D, with MCF7 and in the assay with SK-OV-3 was > 100 µM (inactive) in each case. The GI50 was > 100 µM (inactive) with UACC-257; < 0.01 µM (active) in the assay on HL-60; > 100 µM (inactive) in the assay with A498; > 100 µM (inactive) in the assay with HCT-116; > 100 µM (inactive) in the assay with SNB-19; > 100 µM (inactive) with CAKI-1. The GI50 in the assay on IGROV-1, in the assay on A549, in the assay on DU-145, in the assay on PC-3, with SF-268 and in the assay with OVCAR-4 was > 100 µM (inactive) in each case. Further, in the assay on SR, the GI50 was 36.6 µM (inactive).

In the case of `O=C1CCCC1C(O)(C(F)(F)F)C(F)(F)F` (stereo unspecified), the GI50 in the assay on SF-295, with ACHN, in the assay on OVCAR-3, with T47D, in the assay with MCF7 and in the assay with UACC-257 was > 100 µM (inactive) throughout. In addition, the GI50 in the assay on HL-60, in the assay on SNB-75, in the assay on A498, in the assay on HCT-116, in the assay on SNB-19 and in the assay with CAKI-1 was > 100 µM (inactive) each time. The GI50 in the assay with IGROV-1, in the assay with A549, with DU-145, in the assay with PC-3, in the assay with SF-268 and in the assay on OVCAR-4 was > 100 µM (inactive) throughout. In addition, the GI50 in the assay with SR is > 100 µM (inactive).

Turning to `COc1c(O)cc(C(=O)O[C@@H]2Cc3c(O)cc(O)cc3O[C@@H]2c2cc(O)c(O)c(O)c2)cc1O`, the GI50 with SF-295 was 20.3 µM (inactive); with ACHN, 30.6 µM (inactive); in the assay on OVCAR-3 it was 49.4 µM (inactive); in the assay on T47D, 26.2 µM (inactive); in the assay on MCF7 it was 20 µM (inactive); in the assay on SK-OV-3 it was > 100 µM (inactive). The GI50 in the assay on UACC-257 is 53.3 µM (inactive); with HL-60, 19.7 µM (inactive); in the assay with A498, 94.6 µM (inactive); in the assay on HCT-116 it was 17.9 µM (inactive); in the assay on SNB-19 it was 21.4 µM (inactive); with CAKI-1, > 100 µM (inactive). In addition, the GI50 in the assay on IGROV-1 is 46.2 µM (inactive); in the assay with A549, 23 µM (inactive); in the assay with DU-145 it was 20.3 µM (inactive); in the assay on PC-3, 68.1 µM (inactive); in the assay on SF-268 it was 20.5 µM (inactive); with OVCAR-4, 20.2 µM (inactive). Besides, in the assay with SR, the GI50 was 18.7 µM (inactive).

Source of the values: ChEMBL document CHEMBL1201862, “PubChem BioAssay data set” (2004).
